Where two headings read alike, the source gives them in different places. Values belong to the compound of their own block, whether it stands above or below them.
Columns and labels:
[1] = DCM
[2] = target: T1, human orexin type 2 receptor (hOX2R) (Homo sapiens, UniProt O43614); assay: Orexin type 2 receptor agonist activity, intracellular Ca2+ (FLIPR TETRA) in CHO cells; format: cell-based; conditions: CHO cells expressing hOX2R; Ca2+ fluorescence area; 100% = 10 nM human orexin A; read-out: hOx2 pEC50 (converted)
T1 construct: the Orexin receptor cDNA was inserted into pcDNA3.1(+) plasmid vector; expressed in transfected cells
T1 sequence (O43614 1-444): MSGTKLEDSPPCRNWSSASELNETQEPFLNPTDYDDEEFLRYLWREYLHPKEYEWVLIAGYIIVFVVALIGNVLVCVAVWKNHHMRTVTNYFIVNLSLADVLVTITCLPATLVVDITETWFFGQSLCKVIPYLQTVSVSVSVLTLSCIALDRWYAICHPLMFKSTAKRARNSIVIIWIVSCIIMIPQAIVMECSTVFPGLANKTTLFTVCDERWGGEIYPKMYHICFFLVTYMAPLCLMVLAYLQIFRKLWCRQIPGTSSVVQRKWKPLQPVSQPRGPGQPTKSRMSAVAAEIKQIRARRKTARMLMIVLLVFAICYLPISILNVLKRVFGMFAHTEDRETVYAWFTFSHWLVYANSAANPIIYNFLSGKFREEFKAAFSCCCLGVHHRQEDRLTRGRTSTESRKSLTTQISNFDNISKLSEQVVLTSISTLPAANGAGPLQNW
Procedure: Stable cell line generation. Obtainment of cells stably expressing either human orexin type 2 or human orexin type 1 receptor: to obtain a stable cell line the Orexin receptor cDNA was inserted into pcDNA3.1(+) plasmid vector and clones identified by G418 drug resistance selection. […] A single clone for OX2R—CHO and OX1R—CHO were grown in bulk and frozen to generate a cell bank for routine screening.
Measurement of orexin type 2 receptor agonist activity. Chinese hamster ovary (CHO) cells expressing human orexin type 2 receptor (hOX2R) or human orexin type 1 receptor (hOX1R) were seeded in each well of 384 well black clear bottom plates (BD Flacon) at 10,000 cells per well and cultured for 24 hr in an Ham's F12 (Gibco) medium containing 10% fetal calf serum (Sigma Aldrich) under the conditions of 37° C., 5% CO2. After removal of the medium, 50 μl of assay buffer 1 (0.1% bovine serum albumin (Sigma Aldrich), 20 mM HEPES (Molecular Dimensions), […] probenecid (Sigma Aldrich), 1× Calcium 5 dye (Molecular Devices) in Hank's balanced salt solution (Invitrogen)) was added, and the cells were incubated for 60 min under the conditions of 37° C., 5% CO2. A test compound was dissolved in dimethyl sulfoxide (Sigma Aldrich) to 10 mM, and then diluted with assay buffer 2 (20 mM HEPES, Hank's balanced salt solution, 0.1% bovine serum albumin). For the reaction, a test compound solution (10 μl) was added using Fluorescent Imaging Plate Reader TETRA (FLIPR TETRA: manufactured by Molecular Devices), a fluorescence value (excitation wavelength 488 nm, measurement wavelength 570 nm) of each well was measured every one second for 2 min, and the agonist activity was determined using the area of the fluorescence value as an indicator of intracellular Ca^2+ concentration. The agonist activity of the test compound was calculated assuming that the fluorescence value of the well added with only the dilution buffer was 0% and the fluorescence value of the well added with 10 nM human orexin A (Tocris) buffer was 100%.
Values of hOx2 pEC50 in Table B are presented in ranges, in which 6.0≤“+”<7.0, 7.0≤“++”<8.0, 8.0≤“+++”<9.0, and 9.0≤“++++”<10.4.

[3] = tested on: wild type (WT) colony mates; assay: Wake-promoting efficacy of oral small molecules, piezoelectric sleep/wake monitoring, WT mice; format: in vivo, mouse; conditions: dosed 5 h after light onset
Procedure: (§1) Wake-promoting efficacy of oral small molecules. Wake-promoting efficacy was evaluated in the […]) mouse model of NT1 and wild type (WT) colony mates. Mice were monitored in home cages using piezoelectric sensors for rapid, non-invasive classification of sleep and wakefulness by unsupervised machine learning on physiologically relevant readouts, such as body movement and breath rate. Piezoelectric detection is highly correlated with conventional time-intensive electroencephalogram/electromyography measures of sleep/wake states in both WT and NT1 mice. In a counterbalanced, repeated-measures design, mice were orally dosed at 5 h after light onset with test articles and vehicle.

[4] = tested on: B6.Cg-Tg(HCRT-MJD)1Stak/J (Atax) mouse model of NT1; assay: Wake-promoting efficacy of oral small molecules, piezoelectric sleep/wake monitoring, Atax mice; format: in vivo; conditions: dosed 5 h after light onset
Procedure: as §1

[5] = DCM; remark: listed apart in the source
[6] = target: T2, OX2R (Mus musculus, UniProt P58308); conditions: cited from earlier work
T2 construct: host or cells: mice (WT, orexin-deficient and NT1 models), endogenous receptor in brain
T2 sequence (P58308 1-460): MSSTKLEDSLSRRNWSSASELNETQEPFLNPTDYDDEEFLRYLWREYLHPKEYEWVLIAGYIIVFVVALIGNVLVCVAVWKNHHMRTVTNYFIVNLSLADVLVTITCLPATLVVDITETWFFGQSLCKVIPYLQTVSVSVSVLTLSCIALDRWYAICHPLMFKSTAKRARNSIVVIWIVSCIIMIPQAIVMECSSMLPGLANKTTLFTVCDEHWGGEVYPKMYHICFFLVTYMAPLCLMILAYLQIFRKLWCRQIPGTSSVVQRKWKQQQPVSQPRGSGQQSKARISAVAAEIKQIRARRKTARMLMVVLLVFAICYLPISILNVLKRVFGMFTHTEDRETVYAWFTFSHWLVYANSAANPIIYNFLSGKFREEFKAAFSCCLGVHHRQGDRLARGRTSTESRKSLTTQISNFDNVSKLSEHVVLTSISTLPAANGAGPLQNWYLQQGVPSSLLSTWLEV

Compound: O=C1CCOc2c(F)cccc2-c2cccc(c2F)C[C@H]2[C@@H](NS(=O)(=O)CF)[C@@H](F)CCN12 [Example 42, 1-fluoro-N-((4^2S,4^3R,4^4S)-1^3,2^2,4^4-trifluoro-5-oxo-8-oxa-4 (2,1)-piperidina-1 (1,2),2 (1,3)-dibenzenacyclooctaphane-4^3-yl)methanesulfonamide]
Wake % time 1 h post dose (increase from vehicle) ([3]; oral dose 3 mg/kg): 17.1% | Wake % time 1 h post dose (increase from vehicle) ([3]; oral dose 10 mg/kg): 22.8% | Wake % time 1 h post dose (increase from vehicle) ([3]; oral dose 30 mg/kg): 37.7% | Wake % time 1 h post dose (increase from vehicle) ([4]; oral dose 1 mg/kg): 33.7% | Wake % time 1 h post dose (increase from vehicle) ([4]; oral dose 3 mg/kg): 34.2% | EC50 [2]: 39.8 to 1000 pM

Compound: O=C1CCCN2C(=O)CCOc3ccccc3-c3cccc(c3)CC12 (stereo not shown)
ring closure, isolated yield ([5]; from O=C(O)CCOc1ccccc1-c1cccc(CC2NCCCC2=O)c1, amide bond, 12-membered ring, DMC (2-chloro-1,3-dimethylimidazolinium chloride)/DIEA, 2.56 mM, 25.0 °C, 12.0 h): 52%

Compound: O=C1CCOc2c(F)cc(F)cc2-c2cccc(c2F)C[C@H]2[C@@H](NS(=O)(=O)CF)[C@@H](F)CCN12 [Example 41, 1-fluoro-N-((4^2S,4^3R,4^4S)-1^3,1^5,2^2,4^4-tetrafluoro-5-oxo-8-oxa-4 (2,1)-piperidina-1 (1,2),2 (1,3)-dibenzenacyclooctaphane-4^3-yl)methanesulfonamide]
Wake % time 1 h post dose (increase from vehicle) ([3]; oral dose 10 mg/kg): 28.0% | Wake % time 1 h post dose (increase from vehicle) ([3]; oral dose 30 mg/kg): 31.5% | Wake % time 1 h post dose (increase from vehicle) ([4]; oral dose 1 mg/kg): 32.4% | Wake % time 1 h post dose (increase from vehicle) ([4]; oral dose 3 mg/kg): 38.2% | EC50 [2]: 39.8 to 1000 pM

Compound: COc1ccc(-c2cccc(C(=O)N(C)C)c2)cc1S(=O)(=O)Nc1cccc(NCCNC(=O)c2ccccc2N(C)C)c1 [YNT-185]
sleep-onset REM periods and cataplexy-like events ([6]; NT1 mouse model): decrease sleep-onset REM periods and cataplexy-like events | wakefulness ([6]; intraperitoneally or ICV, wild type (WT) and orexin ligand-deficient mice): modestly increases wakefulness

Compound: O=C1CCCN2C(=O)CCOc3ccccc3-c3cccc(c3F)CC12 (stereo not shown)
ring closure, isolated yield ([5]; from O=C(O)CCOc1ccccc1-c1cccc(CC2NCCCC2=O)c1F, amide bond, 12-membered ring, DMC (2-chloro-1,3-dimethylimidazolinium chloride)/DIEA, 2.7 mM, 25.0 °C, 12.0 h): 53%

Compound: CNCCOc1ccccc1-c1cccc(C[C@@H]2NCC3(CC3)[C@@H]2NS(=O)(=O)C(F)F)c1F
ring closure, yield after HPLC ([1]; the molecule shown is the open-chain precursor, other bond, 13-membered ring, triphosgene/TEA, then K2CO3, then MeCN, 0.2 mM, 60.0 °C): 16%

Compound: 1,1-difluoro-N-((4^2S,4^3R)-1^3,4^4,4^4-trifluoro-6-methyl-5-oxo-9-oxa-6-aza-4 (2,1)-pyrrolidina-1 (1,2),2 (1,3)-dibenzenacyclononaphane-4^3-yl) methanesulfonamide_cis racemic
ring closure, isolated yield ([5]; other bond, 13-membered ring, triphosgene/TEA, then K2CO3, then MeCN, 0.4 mM, 20.0 °C): 28.5%

Further lines, with some results ahead:

EC50 [2]: 39.8 to 1000 pM
Compound: O=C1CCOc2c(F)cccc2-c2cccc(c2F)C[C@H]2[C@@H](NS(=O)(=O)C3(F)CC3)[C@@H](F)CCN12 [Example 44, 1-fluoro-N-((4^2S,4^3R,4^4S)-1^3,2^2,4^4-trifluoro-5-oxo-8-oxa-4 (2,1)-piperidina-1 (1,2),2 (1,3)-dibenzenacyclooctaphane-4^3-yl)cyclopropane-1-sulfonamide]
ring closure, yield after HPLC ([1]; from O=C(O)CCOc1c(F)cccc1-c1cccc(C[C@@H]2NCC[C@H](F)[C@@H]2NS(=O)(=O)C2(F)CC2)c1F, amide bond, 12-membered ring, DMC (2-chloro-1,3-dimethylimidazolinium chloride)/DIEA, 0.165 mM, 25.0 °C, 4.0 h): 42%

EC50 [2]: 39.8 to 1000 pM
Compound: O=C1CCOc2c(F)cccc2-c2cccc(c2F)C[C@H]2[C@@H](NS(=O)(=O)C3(F)CC3)CCCN12 [Example 48, N-((4^2S,4^3S)-13,22-difluoro-5-oxo-8-oxa-4 (2,1)-piperidina-1 (1,2),2 (1,3)-dibenzenacyclooctaphane-4^3-yl)-1-fluorocyclopropane-1-sulfonamide]
Wake % time 1 h post dose (increase from vehicle) ([3]; oral dose 3 mg/kg): 18.6% | Wake % time 1 h post dose (increase from vehicle) ([3]; oral dose 10 mg/kg): 34.8% | Wake % time 1 h post dose (increase from vehicle) ([4]; oral dose 0.3 mg/kg): 44.4% | Wake % time 1 h post dose (increase from vehicle) ([4]; oral dose 1 mg/kg): 40.5% | Wake % time 1 h post dose (increase from vehicle) ([4]; oral dose 3 mg/kg): 48.0%

EC50 [2]: 39.8 to 1000 pM
Compound: O=C1CCOc2c(F)cc(F)cc2-c2cccc(c2F)C[C@H]2[C@@H](NS(=O)(=O)C3(F)CC3)[C@@H](F)CCN12 [Example 43, 1-fluoro-N-((4^2S,4^3R,4^4S)-1^3,1^5,2^2,4^4-tetrafluoro-5-oxo-8-oxa-4 (2,1)-piperidina-1 (1,2),2 (1,3)-dibenzenacyclooctaphane-4^3-yl)cyclopropane-1-sulfonamide]
ring closure, yield after HPLC ([1]; from O=C(O)CCOc1c(F)cc(F)cc1-c1cccc(C[C@@H]2NCC[C@H](F)[C@@H]2NS(=O)(=O)C2(F)CC2)c1F, amide bond, 12-membered ring, DMC (2-chloro-1,3-dimethylimidazolinium chloride)/DIEA, 0.148 mM, 20.0 °C, 4.0 h): 77%

EC50 [2]: 39.8 to 1000 pM
Compound: O=C1CCOc2c(F)cc(F)cc2-c2cccc(c2F)C[C@H]2[C@@H](NS(=O)(=O)C3(F)CC3)CCCN12 [Example 47, 1-fluoro-N-((4^2S,4^3S)-1^3,1^5,2^2-trifluoro-5-oxo-8-oxa-4 (2,1)-piperidina-1 (1,2),2 (1,3)-dibenzenacyclooctaphane-4^3-yl)cyclopropane-1-sulfonamide]
ring closure, isolated yield ([5]; from O=C(O)CCOc1c(F)cc(F)cc1-c1cccc(C[C@@H]2NCCC[C@@H]2NS(=O)(=O)C2(F)CC2)c1F, amide bond, 12-membered ring, DMC (2-chloro-1,3-dimethylimidazolinium chloride)/DIEA, 1.56 mM, 25.0 °C, 1.0 h): 44% | Wake % time 1 h post dose (increase from vehicle) ([3]; oral dose 1 mg/kg): 20.7% | Wake % time 1 h post dose (increase from vehicle) ([3]; oral dose 3 mg/kg): 37.6% | Wake % time 1 h post dose (increase from vehicle) ([3]; oral dose 10 mg/kg): 39.0% | Wake % time 1 h post dose (increase from vehicle) ([4]; oral dose 0.3 mg/kg): 41.3% | Wake % time 1 h post dose (increase from vehicle) ([4]; oral dose 1 mg/kg): 41.8% | Wake % time 1 h post dose (increase from vehicle) ([4]; oral dose 3 mg/kg): 40.4%

EC50 [2]: 39.8 to 1000 pM
Compound: O=C1CCOc2c(F)cccc2-c2cccc(c2)C[C@H]2[C@@H](NS(=O)(=O)C3(F)CC3)CCCN12 [Example 49, 1-fluoro-N-((4^2S,4^3S)-1^3-fluoro-5-oxo-8-oxa-4 (2,1)-piperidina-1 (1,2),2 (1,3)-dibenzenacyclooctaphane-4^3-yl)cyclopropane-1-sulfonamide]
ring closure, yield after HPLC ([1]; from O=C(O)CCOc1c(F)cccc1-c1cccc(C[C@@H]2NCCC[C@@H]2NS(=O)(=O)C2(F)CC2)c1, amide bond, 12-membered ring, DMC (2-chloro-1,3-dimethylimidazolinium chloride)/DIEA, 1.84 mM, 20.0 °C, 4.0 h): 71%

Reference: patent US20250236629A1, “MEDIUM- OR MACRO-CYCLIC BENZYL-SUBSTITUTED HETEROCYCLE DERIVATIVES AND RELATED USES” (CENTESSA PHARMACEUTICALS (UK) LIMITED, priority 2022, published 2025)
